Experimental data taken from paper PMC3574188 (Bioorganic & medicinal chemistry, 2012).

Columns and labels:
[1] = tested on: BoNT/A LC; settings: cited from earlier work
[2] = biological target: T1, BoNT/A LC (1-425aa) (Clostridium botulinum, UniProt P0DPI0); format: biochemical
[3] = biological target: T1, BoNT/A LC (1-425aa); assay: biochemical

T1 sequence (P0DPI0 1-425 limits assumed): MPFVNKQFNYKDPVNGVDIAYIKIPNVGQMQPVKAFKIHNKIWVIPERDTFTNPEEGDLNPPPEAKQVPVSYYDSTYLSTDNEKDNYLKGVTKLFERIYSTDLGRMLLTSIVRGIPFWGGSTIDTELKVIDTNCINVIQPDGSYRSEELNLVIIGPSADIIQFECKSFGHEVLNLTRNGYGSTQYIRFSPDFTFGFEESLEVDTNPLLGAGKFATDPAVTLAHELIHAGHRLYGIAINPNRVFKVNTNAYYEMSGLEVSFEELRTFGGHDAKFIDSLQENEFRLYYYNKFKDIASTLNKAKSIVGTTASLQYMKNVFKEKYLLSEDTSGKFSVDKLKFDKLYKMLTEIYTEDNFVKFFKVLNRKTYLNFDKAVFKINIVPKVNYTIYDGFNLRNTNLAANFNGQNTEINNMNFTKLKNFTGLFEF

Question: Which “fold lower inhibition constant than the parent X” value [1] does the source give for `O=C(C[C@@H](CCO)c1ccc(Cl)cc1Cl)NO` [XI] here?
Answer: ~2 fold

Question: With `O=C(CC12CC3CC(C1)CC(C(=O)O)(C3)C2)NO` [Compound 3h] as the molecule, how does the “inhibitory potency against BoNT/A LC relative to parent 3a” value [2] read?
Answer: no activity

Question: With `O=C(CC12CC3CC(C1)CC(c1ccc(Cl)cc1)(C3)C2)NO` [Compound 3o] as the molecule, how does the “fold lower IC50 value than parent 3a” value [2] read?
Answer: ~ 30 fold

Question: And the Ki [3]?
Answer: ~30 nM

Question: What about the “fold improved potency (lower Ki) than parent lead 3a” value [3] of the same molecule?
Answer: 17 fold

Question: With `O=C(CC12CC3CC(CC(Br)(C3)C1)C2)NO` [Compound 3g] as the molecule, how does the “inhibitory potency against BoNT/A LC relative to parent 3a” value [2] read?
Answer: comparable with the lead molecule

Question: Which results are given for `O=C(CC12CC3CC(C1)CC(c1ccc(Br)cc1)(C3)C2)NO` [Compound 3p]?
Answer: fold lower IC50 value than parent 3a [2]: ~ 30 fold; Ki [3]: ~30 nM; fold improved potency (lower Ki) than parent lead 3a [3]: 17 fold

Question: With `O=C(CC12CC3CC(CC(Cl)(C3)C1)C2)NO` [Compound 3f] as the molecule, how does the “inhibitory potency against BoNT/A LC relative to parent 3a” value [2] read?
Answer: comparable with the lead molecule
